{"source": "paper PMC11868579", "about": "(Nature Communications, 2024)", "key": {"c-Myc-activity": {"system": "c-Myc-activity", "experiment": "c-Myc-regulated luciferase reporter in SW620 cells", "format": "cell-based, human", "conditions": "for c-Myc, Average / CMV, Average: SW620; for c-Myc, Average: c-Myc-regulated firefly luciferase reporter; for CMV, Average: constitutive CMV promoter-regulated renilla luciferase reporter", "procedure": "Luminescence was measured using the Dual-glo luciferase assay (mean ± SEM from 3 biological replicates). b SW620 cells were transfected with a c-Myc-regulated firefly luciferase expression reporter or a constitutive CMV promoter-regulated renilla luciferase reporter. Cells were treated for 24 hr with 1 or 10 µM compound 4 or the […] kinase inhibitor AZD8055 as positive control (mean ± SEM from 3 biological replicates). An ordinary one-way ANOVA with Tukey multiple comparisons test was performed comparing c-Myc-regulated firefly luciferase expression or CMV-regulated Renilla luciferase expression following the different treatments. For c-Myc-regulated firefly luciferase expression, all significant p values […]\nwere <0.0001. […]\nSource data is located in the Supplementary Source Data file"}, "[1]": {"format": "physicochemical", "excerpt": "Chrom kinetic Plasma Caco-2 microsomal\nCmpd Chemical MW LogD solubility protein permeability intrinsic\n# Structure (Da) (pH binding (Papp x10-6 clearance […]\nSupplementary notes Table Physicochemical and in vitro pharmacokinetic properties of compound 4.\nExperimental procedures for the measurement of ChromLogD, aqueous solubility, plasma protein binding, Caco2 permeability and microsomal […]\nDetermination of Chromatographic LogD (ChromLogD7.4)\nChromatographic hydrophobicity index (CHI) values were measured using reversed phase HPLC column (PolymerX RP-1, Phenomenex, UK) with a fast acetonitrile gradient at starting mobile phase of pH = 7.4. CHI values are derived directly from the gradient retention times by using a calibration line obtained for standard compounds.\nThe CHI value approximates to the volume % organic concentration when the compound elutes. CHI is linearly transformed into ChromLogD7.4 by least-square fitting of experimental CHI values to calculated C logP values for over 20,000 research compounds using the following formula: ChromLogD7.4 = 0.0857CHI-2.001.\n(§1) (1 picture or pasted object on this page, not shown here)"}, "eIF4E–4E-BP1 interaction": {"molecular_target": "eIF4E–4E-BP1 interaction (Homo sapiens, UniProt P06730)", "sequence (P06730 2-217 limits assumed)": "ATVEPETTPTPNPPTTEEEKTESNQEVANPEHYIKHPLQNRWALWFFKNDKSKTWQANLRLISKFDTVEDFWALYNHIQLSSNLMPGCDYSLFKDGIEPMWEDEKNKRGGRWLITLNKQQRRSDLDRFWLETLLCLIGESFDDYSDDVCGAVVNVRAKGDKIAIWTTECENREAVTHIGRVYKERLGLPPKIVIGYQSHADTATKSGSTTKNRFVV", "experiment": "Electro-chemiluminescent binding assay, eIF4E:4E-BP1, SW620 cell lysates", "format": "biochemical", "parameters": "endogenous in cells; host or cells: SW620 cell lysates", "conditions": "for 4E-BP1:eIF4E luminescence signal normalised to DMSO control: SW620, Expt 1, Expt 2, Fig. 4d", "procedure": "This assay uses plates with carbon electrodes and electro-chemiluminescent labels (SULFO-TAGs) that are conjugated to detection antibodies. When an electric current is applied to the plate electrodes the SULFO-TAG labels will emit light that is measured to quantify analytes in the sample. […] The plates were washed with 3 ×150 µl/well MSD wash buffer (cat#R61AA-1; 0.2% Tween-20 in PBS), then blocked with 150 µl/well block buffer (MSD, cat# R93AA) for 1 h. […] The incubated plates were washed 4x in 150 µl in MSD wash buffer and were re-blocked by the addition of 25 μl of blocking buffer containing a 1:500 dilution of the secondary antibody and incubated for 1 hr at RT with rotational shaking. […] Plates were then washed again 4x in 150 µl in MSD wash buffer and 25 μl of a 1:50 dilution of Goat anti-rabbit Sulfo-Tag (MSD, Cat# R32AB-1) in MSD blocking buffer was added and the plates incubated for 1 h at RT with rotational shaking. After a final wash step, 150 μl Read Buffer T4X (MSD, Cat# R92-TC2) was added and the plate read using the MSD QuickPlex SQ 120 plate reader."}, "[2]": {"system": "4E-BP1 protein expression", "experiment": "Immunoblot of 4E-BP1 expression after dTAGV-1", "format": "cell-based, human", "conditions": "1μM, control = 1.00", "procedure": "Supplementary Fig. 15 Expression of 4E-BP1 following dTAGV-1 treatment. a […]\n16 hr treatment of 1 µM dTAGV-1 or DMSO control in H1299 parental cells and the […]\nVinculin was used as a loading control. Results are representative of 3 biological replicates. b Quantification of 4E-BP1 protein expression […]\nwas normalised to the DMSO negative control immunoblot (mean ± SEM of 3 […]\ndifferences (p<0.05). Source data is located in the Supplementary Source Data file.\nas §1"}, "H1299 clone C3-1": {"system": "H1299 clone C3-1", "experiment": "Concentration response of cell survival, clone C3-1, Incucyte", "format": "cell-based, human", "conditions": "clone C3-1, 5 days continuous exposure", "procedure": "Real time monitoring of cell growth was performed with the IncuCyte ZOOM live cell imaging system (Essen BioSciences, USA). Cells were seeded in 96 well plates (Corning, cat#353072) and treated on the next day. The resulting phase-contrast images were analysed using IncuCyte ZOOM 2018A software and results were expressed as percentage confluency of cells.\nSupplementary Fig. 14 Treatment of the eIF4E-dTAG-degradation model with negative control dTAGV-1 compound. a Plot of concentration responsiveness versus cell survival for H1299 clone C3-1 following 120 hr exposure to different concentrations of dTAGv-1. Cell confluency (%) was calculated using Incucyte Zoom software and plotted as the mean ± SD from 3 biological replicates. b Immunoblot of […]\nclone treated with 0.5 µM dTAGV-1 or the negative control dTAGV-1 compound for the indicated times. Vinculin was used as a loading control. The immunoblot shown is representative of 3 biological replicates. c Real-time cell confluency measurements of H1299 parental cells treated with 0.5 or 1 µM of dTAGV-1 or the negative control […]\n2) treated with 0.5 or 1 µM of the negative control dTAGV-1 compound. Cells were monitored every 4 hr over a 6-day period. Cell confluency (%) was calculated using Incucyte Zoom software and shown as the mean ± SEM from 3 biological replicates.\nas §1"}}, "note": "Values joined by “and” are separate entries in the source; they are usually repeats but may differ in a detail not shown here. Equal values may be shown once.", "data": [{"smiles": "CC[C@H](O[C@H](C)CO)c1ccc(-c2ccccc2F)cc1NCCO", "note": "[Compound 4]", "values": [{"measurement": "c-Myc, Average", "setting": "c-Myc-activity; 1μM", "result": 80.09}, {"measurement": "CMV, Average", "setting": "c-Myc-activity; 1μM", "result": 89.27}, {"measurement": "c-Myc, Average", "setting": "c-Myc-activity; 10μM", "result": 67.68}, {"measurement": "CMV, Average", "setting": "c-Myc-activity; 10μM", "result": 82.92}, {"measurement": "activity in c-Myc reporter assay", "setting": "c-Myc-activity; SW620 cells, 1 or 10 µM, 24 hr", "result": "showed no activity"}, {"measurement": "Chrom LogD (pH 7.5)", "setting": "[1]", "result": 4.6}, {"measurement": "4E-BP1:eIF4E luminescence signal normalised to DMSO control", "setting": "eIF4E–4E-BP1 interaction; 0.4 μM", "result": "98.1% and 93.2%"}, {"measurement": "4E-BP1:eIF4E luminescence signal normalised to DMSO control", "setting": "eIF4E–4E-BP1 interaction; 4 μM", "result": "74.9% and 84.1%"}, {"measurement": "4E-BP1:eIF4E luminescence signal normalised to DMSO control", "setting": "eIF4E–4E-BP1 interaction; 12 μM", "result": "74.8% and 76%"}, {"measurement": "4E-BP1:eIF4E luminescence signal normalised to DMSO control", "setting": "eIF4E–4E-BP1 interaction; 40 μM", "result": "76.2% and 83.6%"}, {"measurement": "effect on 4E-BP1 binding to eIF4E", "setting": "eIF4E–4E-BP1 interaction; SW620 cell lysates", "result": "not 4E-BP1 binding to eIF4E"}, {"measurement": "4E-BP1:eIF4E SW620, luminescence ratio normalised to DMSO control", "setting": "eIF4E–4E-BP1 interaction; SW620 lysates, 100 µM, 30 min, single experiments Expt 1, Expt 2", "result": "103% and 91%"}]}, {"smiles": "CC[C@H](C(=O)N1CCCC[C@H]1C(=O)O[C@H](CCc1ccc(OC)c(OC)c1)c1ccccc1OCC(=O)NCCCCCCC(=O)N[C@H](C(=O)N1C[C@H](O)C[C@H]1C(=O)N[C@@H](C)c1ccc(-c2scnc2C)cc1)C(C)(C)C)c1cc(OC)c(OC)c(OC)c1", "note": "[dTAG^V-1]", "values": [{"measurement": "Quantification of 4E-BP1 protein expression, Average", "setting": "[2]; H1299 cells", "result": 0.99}, {"measurement": "Quantification of 4E-BP1 protein expression, Average", "setting": "[2]; eIF4E dTAG C3-1 clone", "result": 0.88}, {"measurement": "IC50", "setting": "H1299 clone C3-1", "result": "205 nM and 206 nM"}]}]}
